Data taken from article PMC8348589, “Scarlet Flax Linum grandiflorum (L.) In Vitro Cultures as a New Source of Antioxidant and Anti-Inflammatory Lignans” (Molecules, 2021).
“And” between values parts separate entries of the source, which are not always exact repeats. Equal entries are not always repeated. Where two headings read alike, the source gives them in different places. One block for each molecule: values may come before it.

What was measured:
[1] = molecular target: T1, COX-1 (Ovis aries, UniProt P05979); test: COX-1 inhibition assay (Cayman Chem kit)
T1 sequence (P05979 25-600): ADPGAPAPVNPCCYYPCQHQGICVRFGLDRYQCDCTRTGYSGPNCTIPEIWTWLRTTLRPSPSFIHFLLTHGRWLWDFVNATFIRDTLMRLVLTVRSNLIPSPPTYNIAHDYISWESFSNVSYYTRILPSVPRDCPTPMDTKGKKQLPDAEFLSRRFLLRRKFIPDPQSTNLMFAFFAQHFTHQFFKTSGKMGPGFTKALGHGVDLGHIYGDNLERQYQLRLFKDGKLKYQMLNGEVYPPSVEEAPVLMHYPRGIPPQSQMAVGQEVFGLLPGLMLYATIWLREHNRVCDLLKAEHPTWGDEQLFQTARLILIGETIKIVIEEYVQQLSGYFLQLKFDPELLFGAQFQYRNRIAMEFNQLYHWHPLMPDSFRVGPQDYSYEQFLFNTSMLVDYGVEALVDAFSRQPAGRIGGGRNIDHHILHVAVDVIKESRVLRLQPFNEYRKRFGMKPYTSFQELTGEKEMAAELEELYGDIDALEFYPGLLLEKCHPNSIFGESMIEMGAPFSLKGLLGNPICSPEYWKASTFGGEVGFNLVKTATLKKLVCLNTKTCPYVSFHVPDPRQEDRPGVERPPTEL
Description: (§2) COX-1 (Ovine) and COX-2 (Human) inhibition assays were performed using the corresponding Cayman Chem kits. The assays were performed according to the manufacturer’s instructions. Arachidonic acid (1.1 mM) was used as substrate. Reaction was followed at 590 nm in a BioTek Instrument Synergy II microplate reader.

[2] = molecular target: T2, COX-2 (Homo sapiens, UniProt P35354); test: COX-2 inhibition assay (Cayman Chem kit)
T2 sequence (P35354 18-604): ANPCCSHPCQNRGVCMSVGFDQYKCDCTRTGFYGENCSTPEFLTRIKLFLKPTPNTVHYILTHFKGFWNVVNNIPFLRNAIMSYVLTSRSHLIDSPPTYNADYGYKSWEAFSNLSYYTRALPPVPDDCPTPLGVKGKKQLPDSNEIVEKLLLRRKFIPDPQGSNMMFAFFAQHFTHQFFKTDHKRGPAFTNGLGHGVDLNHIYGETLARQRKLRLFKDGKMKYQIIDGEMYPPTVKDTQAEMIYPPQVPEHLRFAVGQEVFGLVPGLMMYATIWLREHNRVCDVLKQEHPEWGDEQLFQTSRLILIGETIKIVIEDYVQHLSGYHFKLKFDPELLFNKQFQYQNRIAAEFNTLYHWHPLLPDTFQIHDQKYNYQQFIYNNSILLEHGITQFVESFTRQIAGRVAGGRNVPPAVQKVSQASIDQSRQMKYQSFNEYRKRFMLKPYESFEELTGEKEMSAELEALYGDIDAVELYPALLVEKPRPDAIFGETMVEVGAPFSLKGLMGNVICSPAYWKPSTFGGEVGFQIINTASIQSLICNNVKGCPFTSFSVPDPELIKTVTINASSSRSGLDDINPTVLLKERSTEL
Description: as §2

[3] = tested on: L. grandiflorum hypocotyl and cotyledon explants; test: Callus induction frequency on MS medium with PGRs; assay type: cell-based, Linum grandiflorum; settings: 1.0 mg/L NAA
Description: (§1) Both the cotyledon (0.5 cm) and hypocotyl (1.0 cm) explants of L. grandiflorum of 5-day old seedlings, grown in vitro, were employed as the source of the explants and inoculated on three different experimental media containing sucrose (30g/L), agar (8 g/L) along with various concentrations of α-naphthaleneacetic acid (NAA: 0.1, 1.0, 2.5, 5.0, 10 mg/L), thidiazuron (TDZ: 0.1, 1.0, 2.5, 5.0, 10 mg/L) and a combination of both (TDZ: 0.1, 1.0, 2.5, 5.0, 10 mg/L and NAA: 0.1 mg/L constant) and placed in a growth room at 25 ± 2 °C temperature, using light intensity of 40 μmol/m^2/s at around a 16/8 h (light/dark) photoperiod. Four explants were inoculated for each condition. All experiments were conducted twice for each treatment. Media without PGRs addition were used as controls. The cultures were harvested at day 30 after inoculation. Biomass determination (fresh weights (FW) and dried weight (DW)) were determined for each condition. For dry weight (DW) estimation, cells were frozen and lyophilized 48 h.

[4] = tested on: L. grandiflorum callus cultures; test: Biomass accumulation of callus cultures; assay type: cell-based, Linum grandiflorum; settings: harvested day 30
Description: as §1

[5] = read-out: COX-1 IC50 (in µM), purified (neo)lignans
[6] = read-out: COX-2 IC50 (in µM), purified (neo)lignans

- IC50 [1, 5]: 21.7 ± 1.9 µM
- IC50 [2, 6]: 32.7 ± 0.8 µM
SMILES: COc1cc(C[C@@H](CO)[C@H](CO)Cc2ccc(O)c(OC)c2)ccc1O [SECO, secoisolariciresinol]

- IC50 [1, 5]: 51.3 ± 0.3 µM
- IC50 [2, 6]: 19.2 ± 2.5 µM
SMILES: COc1cc(C2Oc3c(OC)cc(/C=C/CO)cc3C2CO)ccc1O (stereo not shown) [DCA, dehydrodiconiferyl alcohol]

SMILES: O=C(O)Cc1cccc2ccccc12 [NAA, α-naphthalene acetic acid]
- callus induction frequency ([3]; cotyledon explants): 87%
- callus induction frequency ([3]; hypocotyl explants): 95% and 95.2%
- biomass accumulation (DW) ([4]; cotyledon-derived callus, 1.0 mg/L NAA): 11.4 g/L
- biomass accumulation (DW) ([4]; hypocotyl-derived callus): 13 g/L

- IC50 [1]: 24.2 ± 6.9 µM
- IC50 [2]: 34.6 ± 2.9 µM
SMILES: COc1cc(C[C@H]2CO[C@H](c3ccc(O)c(OC)c3)[C@H]2CO)ccc1O [LARI, lariciresinol]
